Here are results for five compounds from ChEMBL document CHEMBL4813975, “Discovery and characterization of a novel glucose-6-phosphate dehydrogenase (G6PD) inhibitor via high-throughput screening” (Bioorg Med Chem Lett, 2021).

Activity calls are given as the source filed them. The rule behind the calls is not given here.

The target in experiment [1] is T1, Glucose-6-phosphate 1-dehydrogenase (Homo sapiens, UniProt P11413). Description: Inhibition of G6PD (unknown origin) assessed as reduction in 6-phospho-D-glucono-1,5-lactone and NADPH production using glucose-6-phosphate and NADP+ as substrate incubated for 15 mins by UV absorption photometry assay.
T1 sequence (P11413 whole entry): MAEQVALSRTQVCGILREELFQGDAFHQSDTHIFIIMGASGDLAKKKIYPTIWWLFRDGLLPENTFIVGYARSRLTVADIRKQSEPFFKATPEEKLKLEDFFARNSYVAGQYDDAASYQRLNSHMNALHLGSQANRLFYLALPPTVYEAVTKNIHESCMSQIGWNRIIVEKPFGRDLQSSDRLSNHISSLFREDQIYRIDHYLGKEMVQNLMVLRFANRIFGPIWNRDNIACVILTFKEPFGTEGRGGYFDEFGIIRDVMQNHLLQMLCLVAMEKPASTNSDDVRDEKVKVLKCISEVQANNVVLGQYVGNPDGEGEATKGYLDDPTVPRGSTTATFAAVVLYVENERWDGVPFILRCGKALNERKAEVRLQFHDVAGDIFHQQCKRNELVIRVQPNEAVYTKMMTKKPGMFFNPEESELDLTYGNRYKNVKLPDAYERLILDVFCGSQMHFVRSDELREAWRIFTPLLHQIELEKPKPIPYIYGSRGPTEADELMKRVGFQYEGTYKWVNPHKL
The target of experiment [2] is T1, Glucose-6-phosphate 1-dehydrogenase. Nature of the experiment: Non-competitive inhibition of G6PD (unknown origin) using glucose-6-phosphate and varying concentrations of NADP+ as substrate by Michaelis-Menten analysis.
Experiment [3] shares this target. Nature of the experiment: Binding affinity to G6PD (unknown origin) assessed as equilibrium dissociation constant by surface plasmon resonance assay.
The target is the same in experiment [4]. Nature of the experiment: Competitive inhibition of G6PD (unknown origin) using glucose-6-phosphate and varying concentrations of NADP+ as substrate by Michaelis-Menten analysis.
Experiment [5] shares this target. Description: Competitive inhibition of G6PD (unknown origin) using varying concentrations of G6P and NADP+ as substrate by Michaelis-Menten analysis.
Experiment [6] has the same target. Description: Non-competitive inhibition of G6PD (unknown origin) using varying concentrations of G6P and NADP+ as substrate by Michaelis-Menten analysis.
For experiment [7] the target is unchanged. Nature of the experiment: Inhibition of G6PD in human OVCAR-3 cells assessed as thermal instability of the enzyme by CETSA analysis. It is filed as cell-based.
A further experiment deals with OVCAR-3. Description: Inhibition of colony formation in human OVCAR-3 cells overexpressing G6PD incubated for 14 days by crystal violet staining based assay. Type of experiment: functional, cell-based.
For experiment [8], the target named is T1, Glucose-6-phosphate 1-dehydrogenase. Description: Reversible inhibition of G6PD (unknown origin) using glucose-6-phosphate and NADP+ as substrate measured after dilution of 12XIC50 to 0.6XIC50 by dilution based analysis.

The IC50 is the concentration at which inhibition is half-maximal. In the case of `O=C(/C=C/c1ccc(O)c(O)c1)O[C@@H]1C[C@](O)(C(=O)O)C[C@@H](OC(=O)/C=C/c2ccc(O)c(O)c2)[C@H]1O`, the half-inhibitory concentration (IC50) in experiment [1] was 37.7 µM.
Broadly, the Ki is a measure of affinity in units of concentration, obtained from inhibition or displacement. Read a low Ki as tighter binding. By Kd is commonly meant the free concentration of one partner at which half of the binding sites on the other are occupied at equilibrium, for simple one-to-one binding. The EC50 is the concentration giving half of the maximal effect. Turning to `COc1cc(O)c2c(c1)oc(=O)c1c3cc(O)c(O)cc3oc21` [WEDELOLACTONE], the Ki turned out to be 5.79 µM in experiment [2], 1.19 µM in experiment [4], 2.54 µM in [5] and 9.94 µM in experiment [6]. Besides, the Kd in experiment [3] was determined as 3.64 µM. In addition, the IC50 in experiment [1] came to 5.18 µM. The inhibition result in [7] and in experiment [8] was “Active” throughout. This compound also had an EC50 with OVCAR-3 (OVCAR-3, 336 h) of 10.6 µM. Besides, the inhibition result with OVCAR-3 (time 14.0 day) is “Dose-Dependent Effect”.
For the compound `C[C@]12CC[C@H](O)CC1=CC[C@@H]1[C@@H]2CC[C@]2(C)C(=O)CC[C@@H]12` [PRASTERONE], in experiment [1], the IC50 worked out at 12.5 µM.
In the case of `O=c1c(O)c(-c2ccc(O)c(O)c2)oc2cc(O)cc(O)c12`, the IC50 in experiment [1] turned out to be 31 µM.
As for `OC[C@H]1O[C@@H](Oc2cc(O)cc(/C=C/c3ccc(O)cc3)c2)[C@H](O)[C@@H](O)[C@@H]1O` [PICEID], in experiment [1], the concentration for half-maximal inhibition (IC50) was 74.5 µM.
